From publication PMC3441040 (ACS Medicinal Chemistry Letters, 2012) come the findings set out here.

Structures are written as SMILES. Where only a bound is given, the exact number is not on record here.

One experiment deals with T1, purified murine COX-2 (Mus musculus, UniProt Q05769).
T1 sequence (Q05769 18-604): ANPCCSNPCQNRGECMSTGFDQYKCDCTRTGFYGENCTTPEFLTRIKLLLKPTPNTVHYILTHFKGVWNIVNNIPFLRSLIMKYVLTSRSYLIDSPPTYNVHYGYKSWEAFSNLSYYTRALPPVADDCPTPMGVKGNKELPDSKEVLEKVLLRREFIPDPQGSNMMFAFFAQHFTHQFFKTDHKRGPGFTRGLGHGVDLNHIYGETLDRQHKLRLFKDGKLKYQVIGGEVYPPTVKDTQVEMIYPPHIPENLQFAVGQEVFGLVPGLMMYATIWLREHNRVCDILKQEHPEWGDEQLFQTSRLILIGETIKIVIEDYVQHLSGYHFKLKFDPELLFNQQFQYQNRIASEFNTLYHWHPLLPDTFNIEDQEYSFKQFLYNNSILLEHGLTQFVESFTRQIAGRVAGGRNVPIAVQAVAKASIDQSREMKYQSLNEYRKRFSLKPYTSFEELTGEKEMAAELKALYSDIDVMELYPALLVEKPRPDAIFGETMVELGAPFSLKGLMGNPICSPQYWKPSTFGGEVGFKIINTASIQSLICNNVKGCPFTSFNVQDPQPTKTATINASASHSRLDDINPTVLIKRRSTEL
Kind of experiment: Inhibition of mCOX-2 dependent oxygenation of 2-AG and AA in vitro. In kind it is biochemical. Conditions: read-out: 2-AG IC50 (dash).

In experiment [1] the test system is COX-2 dependent oxygenation in RAW 264.7 macrophages. Kind of experiment: Oxygenation of 2-AG and AA in LPS/interferon γ stimulated RAW 264.7 macrophages. In kind it is cell-based. The settings on record: Mus musculus, RAW264.7, read-out: AA inhibition in RAW 264.7 cells.

Regarding `CC(C)Cc1ccc(C(C)(C)C(=O)O)cc1` [4c], at purified murine COX-2, the inhibition at 10 µM is less than 50%.

As for `COc1ccc2cc(C(C)(C)C(=O)O)ccc2c1` [4b], the inhibition at 10 µM on purified murine COX-2 is less than 50%.

On to `C[C@@H](C(=O)O)c1ccc(-c2ccccc2)c(F)c1` [7a, (R)-flurbiprofen], for which the inhibition at 50 µM in experiment [1] turned out to be 0%.

As for `CC(C)Cc1ccc(C2(C(=O)O)CC2)cc1` [5c], at purified murine COX-2, the inhibition at 10 µM was less than 50%.
